Where two headings read alike, the source gives them in different places.
Tests used:
[1] = system: various cancer cells; details: various cancer cells in vitro; versus irinotecan; cited from earlier work
[2] = system: c1498 murine AML (Acute Myeloid Leukemia) cells; experiment: Survival of FACS-sorted phosphatidylserine-positive c1498 AML cells; format: cell-based; details: Mus musculus, c1498 cells treated with cytarabine (1 μM) for 24 hrs, estimated from growth rates
Text: FIG. 1A-FIG. 1C show the survival of phosphatidylserine-expressing AML cells. […] The rectangles indicate the sorted cells. […] About 1000 each of the sorted cells were placed into multi-well plates. When the cells reached sufficient numbers, they were counted at different time points to measure their growth rates. The growth rates were then used to estimate the initial live cell numbers. The following formula was used to calculate the minimal initial live cell numbers: Minimal initial cell number=Total cell population/(growth rate*t)(days to reach the current cell number).
To determine whether cells expression high-level of PS expression on the cell surface are destined to die, the viability of c1498 murine AML (Acute Myeloid Leukemia) cells treated with cytarabine (part of a classical chemotherapy regimen for human AML) was examined. Specifically, whether cell surface PS-expressing acute myelocytic leukemia (AML) cells survived was examined. FACS was used to identify and sort cells with high cell surface PS-expression and the ability to survive was measured. FIG. 1A-FIG. 1B). In FIG. 1A, FACS sorting of untreated c1498 cells (in DMEM with 8% FBS). The rectangles indicate the sorted cells. In FIG. 1B, FACS sorting of c1498 cells treated with cytarabine (1 μM) for 24 hrs). […] When the cells reached sufficient numbers, the cells were counted at different time points to measure growth rates. […]

[3] = system: KG1a human AML cell line; experiment: Phagocytosis assay with THP1-derived macrophages; format: cell-based; details: untreated or doxorubicin-treated cells; 2 hrs incubation; versus isotype control (IgG1)
Experimental: THP1 cells transduced with mCherry were differentiated into macrophages following previously established procedures. The macrophages were then incubated with non-treated or doxorubicin-treated KG1a human AML cell line transduced with EGFP in the presence of either isotype control (IgG1) or AnnexinV-IgG1Fc. After 2 hrs of incubation, the macrophages and the KG1a cells they have engulfed were counted.
The ability of THP1-derived macrophages to phagocytose control or doxorubicin-treated […] cells was examined. […] Representative fluorescence images of phagocytosis assay. THP1 cells transduced with mCherry were differentiated into macrophages following previously established procedures. The cells were then incubated with non-treated or doxorubicin-treated KG1a human AML cell line transduced with EGFP in the presence of either isotype control (IgG1) or AnnexinV-IgG1Fc. After 2 hrs of incubation, the macrophages and the KG1a cells they have engulfed were counted (FIG. 2A). Quantitative estimates of phagocytosis of KG1a cells by THP1-derived macrophages, the phagocytic index was calculated as: (Average number of KG1a cells engulfed per macrophage)×(percentage of macrophages which have engulfed KG1a cells)×[…] (FIG. 2B).

[4] = system: c1498 AML; experiment: Survival of C57BL/6 mice injected with c1498 AML cells; format: in vivo; details: combination: cytarabine 100 mg/kg i.p. every 12 hrs for 3 times, then Annexin V-Fc i.p. 4 times at 72 hours intervals
Experimental: About 2×10^5 c1498 cells were injected into the tail vein of C57BL/6 mice. At 24 hrs after the injection, the mice were treated with 100 mg/kg cytarabine (injected i.p. every 12 hrs for 3 times). At 24 hrs after the last treatment, Annexin V-Fc was given i.p. 4 times at 72 hours intervals. The mice were then observed and sacrificed until they were moribund. Shown were the survival of different mice after they were treated with different antibody and drug combinations.
Whether Annexin V-IgG1Fc fusion protein can enhance the treatment of c1498 AML in syngeneic mice (C57BL/6) in combination with cytarabine, a commonly used drug for AML treatment, was examined. […] Here, about 2×10^5 c1498 cells were injected into the tail vein of C57BL/6 mice. At 24 hrs after the injection, the mice were treated with 100 mg/kg cytarabine (injected i.p. every 12 hrs for 3 times). At 24 hrs after the last treatment, Annexin V-Fc was given i.p. 4 times at 72 hours intervals. The mice were then observed and sacrificed until they are moribund.

[5] = versus doxorubicin; cited from earlier work

CCc1c2c(nc3ccc(O)cc13)-c1cc3c(c(=O)n1C2)COC(=O)[C@]3(O)CC [SN-38, 7-ethyl-10-hydroxy-camptothecin]
cytotoxic activity relative to irinotecan [1]: up to 1,000 fold

Nc1ccn([C@@H]2O[C@H](CO)[C@@H](O)[C@@H]2O)c(=O)n1 [cytarabine]
viability at 1 µM ([2]; read-out: proportion of PS+7AAD+ c1498 cells that remained viable and could proliferate): ~8% | viability at 1 µM ([2]; read-out: proportion of PS+7AAD- c1498 cells that remained viable and could proliferate): ~25%

Annexin V-IgG1Fc fusion protein: Annexin V fused to the Fc domain of IgG1; SEQ ID NO:85 is the form with secretion signal
phagocytosis of AML cells by THP1-derived macrophages (phagocytic index) [3]: effectively boosted the phagocytosis | median survival of host mice [4]: > 62 days

calicheamicin
potency relative to doxorubicin [5]: approximately 4000 times

— patent publication US20250136689A1, “COMPOSITIONS FOR AND METHODS OF TREATING HEMATOLOGICAL CANCERS” (Duke University, priority 2022, published 2025)
